{"source": "paper PMC5218480", "about": "(PLoS ONE, 2017)", "system": "MV-4-11 cells", "assay": "Gene expression microarray analysis (Affymetrix PrimeView) and GSEA", "assay_type": "cell-based, human", "design": "RFU PODN (11730768_x_at) / Fold change /veh PODN (11730768_x_at) / RFU LINC00158 (11744669_a_at) / Fold change /veh LINC00158 (11744669_a_at) / RFU DUSP10 (11751237_a_at) / Fold change /veh DUSP10 (11751237_a_at) / RFU ID3 (11757404_x_at) / Fold change /veh ID3 (11757404_x_at) / RFU PLEKHG5 (11737974_s_at) / Fold change /veh PLEKHG5 (11737974_s_at) / RFU LRRC4B (11730491_at) / Fold change /veh LRRC4B (11730491_at) / RFU GIMAP4 (11747438_a_at) / Fold change /veh GIMAP4 (11747438_a_at) / RFU KRT8 (11758183_x_at) / Fold change /veh KRT8 (11758183_x_at) / RFU CNN1 (11734310_a_at) / Fold change /veh CNN1 (11734310_a_at) / RFU VPS37D (11726825_at) / Fold change /veh VPS37D (11726825_at) / RFU C10orf10 (11716522_x_at) / Fold change /veh C10orf10 (11716522_x_at) / RFU KIR2DL2 /// KIR2DL4 /// KIR2DL5A /// KIR2DL5B /// KIR2DS1 /// KIR2DS2 /// KIR2DS3 /// KIR2DS4 /// KIR3DL3 /// KIR3DL3 /// KIR3DS1 (11738374_at) / Fold change /veh KIR2DL2 /// KIR2DL4 /// KIR2DL5A /// KIR2DL5B /// KIR2DS1 /// KIR2DS2 /// KIR2DS3 /// KIR2DS4 /// KIR3DL3 /// KIR3DL3 /// KIR3DS1 (11738374_at) / RFU C1QL1 (11718748_at) / Fold change /veh C1QL1 (11718748_at) / RFU TMPRSS4 (11747572_a_at) / Fold change /veh TMPRSS4 (11747572_a_at) / RFU HAMP (11756126_x_at) / Fold change /veh HAMP (11756126_x_at) / RFU RNFT2 (11725882_a_at) / Fold change /veh RNFT2 (11725882_a_at) / RFU NR4A2 (11747474_a_at) / Fold change /veh NR4A2 (11747474_a_at) / RFU ABCC12 (11746883_a_at) / Fold change /veh ABCC12 (11746883_a_at) / RFU TMEM136 (11760407_x_at) / Fold change /veh TMEM136 (11760407_x_at) / RFU CLDN22 /// WWC2 (11732394_at) / Fold change /veh CLDN22 /// WWC2 (11732394_at) / RFU HLA-DPB1 (11760878_x_at) / Fold change /veh HLA-DPB1 (11760878_x_at) / RFU SPINT1 (11716480_a_at) / Fold change /veh SPINT1 (11716480_a_at) / RFU GAP43 (11754022_s_at) / Fold change /veh GAP43 (11754022_s_at) / RFU A4GNT (11735810_at) / Fold change /veh A4GNT (11735810_at) / RFU PRB3 (11715151_x_at) / Fold change /veh PRB3 (11715151_x_at) / RFU TUBB4B (11761932_at) / Fold change /veh TUBB4B (11761932_at) / RFU CAPN14 (11732068_a_at) / Fold change /veh CAPN14 (11732068_a_at) / RFU TMCC2 (11721928_a_at) / Fold change /veh TMCC2 (11721928_a_at) / RFU IRGQ (11745062_a_at) / Fold change /veh IRGQ (11745062_a_at) / RFU FAM174B (11720279_a_at) / Fold change /veh FAM174B (11720279_a_at) / RFU TMPRSS4 (11748680_a_at) / Fold change /veh TMPRSS4 (11748680_a_at) / RFU FAM212B (11763350_a_at) / Fold change /veh FAM212B (11763350_a_at) / RFU PLEKHG5 (11743358_a_at) / Fold change /veh PLEKHG5 (11743358_a_at) / RFU ZSCAN30 (11745921_a_at) / Fold change /veh ZSCAN30 (11745921_a_at) / RFU CMKLR1 (11741424_a_at) / Fold change /veh CMKLR1 (11741424_a_at) / RFU LOC101060620 /// MAPK8IP1 (11723275_at) / Fold change /veh LOC101060620 /// MAPK8IP1 (11723275_at) / RFU SPTSSB (11747773_x_at) / Fold change /veh SPTSSB (11747773_x_at) / RFU PRSS12 (11739890_at) / Fold change /veh PRSS12 (11739890_at) / RFU BIN1 (11741810_x_at) / Fold change /veh BIN1 (11741810_x_at) / RFU WNT11 (11732464_a_at) / Fold change /veh WNT11 (11732464_a_at) / RFU C10orf10 (11716521_a_at) / Fold change /veh C10orf10 (11716521_a_at) / RFU C5orf56 (11738089_at) / Fold change /veh C5orf56 (11738089_at) / RFU CYB561 (11721691_x_at) / Fold change /veh CYB561 (11721691_x_at) / RFU ANKRD19P (11752326_a_at) / Fold change /veh ANKRD19P (11752326_a_at) / RFU OR2T12 /// OR2T33 /// OR2T8 (11738714_s_at) / Fold change /veh OR2T12 /// OR2T33 /// OR2T8 (11738714_s_at) / RFU VCAN (11748164_a_at) / Fold change /veh VCAN (11748164_a_at) / RFU JSRP1 (11732532_at) / Fold change /veh JSRP1 (11732532_at) / RFU KRTAP10-11 (11738290_x_at) / Fold change /veh KRTAP10-11 (11738290_x_at) / RFU MYO3A (11730013_a_at) / Fold change /veh MYO3A (11730013_a_at) / RFU EBF3 (11725865_a_at) / Fold change /veh EBF3 (11725865_a_at) / RFU CAMK2N1 (11719241_x_at) / Fold change /veh CAMK2N1 (11719241_x_at) / RFU C5orf56 (11738088_a_at) / Fold change /veh C5orf56 (11738088_a_at) / RFU OLFML3 (11715873_a_at) / Fold change /veh OLFML3 (11715873_a_at) / RFU LOC100653217 /// NTM (11731650_a_at) / Fold change /veh LOC100653217 /// NTM (11731650_a_at) / RFU MAPK11 (11762145_a_at) / Fold change /veh MAPK11 (11762145_a_at) / RFU FIZ1 (11724087_x_at) / Fold change /veh FIZ1 (11724087_x_at) / RFU OASL (11726364_x_at) / Fold change /veh OASL (11726364_x_at) / RFU SOX15 (11748057_x_at) / Fold change /veh SOX15 (11748057_x_at) / RFU CD79A (11719716_a_at) / Fold change /veh CD79A (11719716_a_at) / RFU HIST1H1D (11736915_at) / Fold change /veh HIST1H1D (11736915_at) / RFU CASKIN2 (11723855_a_at) / Fold change /veh CASKIN2 (11723855_a_at) / RFU LOC730098 (11760151_x_at) / Fold change /veh LOC730098 (11760151_x_at) / RFU OR4N2 (11742367_at) / Fold change /veh OR4N2 (11742367_at) / RFU PRRT2 (11749266_a_at) / Fold change /veh PRRT2 (11749266_a_at) / RFU SNX32 (11753110_a_at) / Fold change /veh SNX32 (11753110_a_at) / RFU CDHR5 (11726645_a_at) / Fold change /veh CDHR5 (11726645_a_at) / RFU RCAN1 (11760418_a_at) / Fold change /veh RCAN1 (11760418_a_at) / RFU FAM167A (11723789_a_at) / Fold change /veh FAM167A (11723789_a_at) / RFU FAM26E (11764081_at) / Fold change /veh FAM26E (11764081_at) / RFU ISYNA1 (11749810_s_at) / Fold change /veh ISYNA1 (11749810_s_at) / RFU ACY1 (11761880_at) / Fold change /veh ACY1 (11761880_at) / RFU 11764098_at / Fold change /veh 11764098_at / RFU SAMD14 (11745864_x_at) / Fold change /veh SAMD14 (11745864_x_at) / RFU NPB (11741838_a_at) / Fold change /veh NPB (11741838_a_at) / RFU TMPRSS6 (11731388_a_at) / Fold change /veh TMPRSS6 (11731388_a_at) / RFU KRTAP10-2 (11738614_at) / Fold change /veh KRTAP10-2 (11738614_at) / RFU ARHGAP8 /// PRR5-ARHGAP8 (11727945_x_at) / Fold change /veh ARHGAP8 /// PRR5-ARHGAP8 (11727945_x_at) / RFU KRTAP5-7 /// NADSYN1 (11734609_at) / Fold change /veh KRTAP5-7 /// NADSYN1 (11734609_at) / RFU RASL12 (11751679_a_at) / Fold change /veh RASL12 (11751679_a_at) / RFU CDKN2B (11736163_a_at) / Fold change /veh CDKN2B (11736163_a_at) / RFU PRF1 (11729649_at) / Fold change /veh PRF1 (11729649_at) / RFU, ZNF638 /// ZNF638-IT1 / Fold change vs veh, ZNF638 /// ZNF638-IT1 / RFU, PANK3 / Fold change vs veh, PANK3 / RFU, SH3YL1 / Fold change vs veh, SH3YL1 / RFU, ZEB2 / Fold change vs veh, ZEB2 / RFU, NRIP1 / Fold change vs veh, NRIP1 / RFU, PTTG1IP / Fold change vs veh, PTTG1IP / RFU, CAPN2 / Fold change vs veh, CAPN2 / RFU, MED14 / Fold change vs veh, MED14 / RFU, SNORA58 / Fold change vs veh, SNORA58 / RFU, C1orf63 / Fold change vs veh, C1orf63 / RFU, LRRFIP1 / Fold change vs veh, LRRFIP1 / RFU, NDUFAF7 / Fold change vs veh, NDUFAF7 / RFU, SLC12A2 / Fold change vs veh, SLC12A2 / RFU, IBTK / Fold change vs veh, IBTK / RFU, ESF1 / Fold change vs veh, ESF1 / Fold change vs veh, TMEM50B / RFU, TAOK1 / Fold change vs veh, TAOK1 / RFU, ACBD3 / Fold change vs veh, ACBD3 / RFU, TMA16 / Fold change vs veh, TMA16 / RFU, RWDD3 / Fold change vs veh, RWDD3 / RFU, BCAT1 / Fold change vs veh, BCAT1 / RFU, EDEM3 / Fold change vs veh, EDEM3 / RFU, TMEM33 / Fold change vs veh, TMEM33 / RFU, WDR75 / Fold change vs veh, WDR75 / RFU, AHCTF1 / Fold change vs veh, AHCTF1 / RFU, TFRC / Fold change vs veh, TFRC / RFU, ZDHHC17 / Fold change vs veh, ZDHHC17 / RFU, NOM1 / Fold change vs veh, NOM1 / RFU, ARL8B / Fold change vs veh, ARL8B / RFU, ZBTB11 / Fold change vs veh, ZBTB11 / RFU, TAMM41 / Fold change vs veh, TAMM41 / RFU, KIAA1704 /// LOC100996395 / Fold change vs veh, KIAA1704 /// LOC100996395 / RFU, ING1 / Fold change vs veh, ING1 / RFU, TRMT61B / Fold change vs veh, TRMT61B / RFU, FUBP3 / Fold change vs veh, FUBP3 / RFU, TP53 / Fold change vs veh, TP53 / RFU, TNKS2 / Fold change vs veh, TNKS2 / RFU, ZFP14 / Fold change vs veh, ZFP14 / RFU, ACTR2 / Fold change vs veh, ACTR2 / RFU, PPP3R1 / Fold change vs veh, PPP3R1 / RFU, PIK3R1 / Fold change vs veh, PIK3R1 / RFU, HNRNPA1 / Fold change vs veh, HNRNPA1 / RFU, RNF170 / Fold change vs veh, RNF170 / RFU, ZNF28 / Fold change vs veh, ZNF28 / RFU, RNGTT / Fold change vs veh, RNGTT / RFU, OGT / Fold change vs veh, OGT / RFU, BRD1 / Fold change vs veh, BRD1 / RFU, MARS / Fold change vs veh, MARS / RFU, ZNF655 / Fold change vs veh, ZNF655 / RFU, FAHD1 / Fold change vs veh, FAHD1 / RFU, BDP1 / Fold change vs veh, BDP1 / RFU, LRRCC1 / Fold change vs veh, LRRCC1 / RFU, ARID1A / Fold change vs veh, ARID1A / RFU, ZNF146 / Fold change vs veh, ZNF146 / RFU, ZNF330 / Fold change vs veh, ZNF330 / RFU, GPN3 / Fold change vs veh, GPN3 / RFU, C9orf123 / Fold change vs veh, C9orf123 / RFU, N4BP2L2 / Fold change vs veh, N4BP2L2 / RFU, ARFIP1 / Fold change vs veh, ARFIP1 / RFU, FAM179B / Fold change vs veh, FAM179B / RFU, BCL10 / Fold change vs veh, BCL10 / RFU, UHRF1BP1L / Fold change vs veh, UHRF1BP1L / RFU, BET1 / Fold change vs veh, BET1 / RFU, CNOT2 / Fold change vs veh, CNOT2 / RFU, ZNF268 / Fold change vs veh, ZNF268 / Fold change vs veh, ZNF507 / RFU, DGCR2 / Fold change vs veh, DGCR2 / RFU, WDSUB1 / Fold change vs veh, WDSUB1 / Fold change vs veh, HSP90B1 /// MIR3652 / RFU, ADSS / Fold change vs veh, ADSS / RFU, GK / Fold change vs veh, GK / RFU, ZNF148 / Fold change vs veh, ZNF148 / RFU, TAF9 / Fold change vs veh, TAF9 / RFU, SLC1A5 / Fold change vs veh, SLC1A5 / RFU, SLMO2 / Fold change vs veh, SLMO2 / RFU, ABCC4 / Fold change vs veh, ABCC4 / RFU, LOC101060439 /// RAP1B / Fold change vs veh, LOC101060439 /// RAP1B / RFU, RFX7 / Fold change vs veh, RFX7 / RFU, GTPBP10 / Fold change vs veh, GTPBP10 / RFU, CNEP1R1 / Fold change vs veh, CNEP1R1 / RFU, BIVM-ERCC5 /// ERCC5 / Fold change vs veh, BIVM-ERCC5 /// ERCC5 / RFU, ILF3 / Fold change vs veh, ILF3 / RFU 11762660_at / Fold change /veh 11762660_at / RFU VCAN (11757783_s_at) / Fold change /veh VCAN (11757783_s_at) / RFU DDX43 (11728927_at) / Fold change /veh DDX43 (11728927_at) / RFU KRT8 (11758188_x_at) / Fold change /veh KRT8 (11758188_x_at) / RFU NKD1 (11759106_at) / Fold change /veh NKD1 (11759106_at) / RFU SRD5A1 (11742802_a_at) / Fold change /veh SRD5A1 (11742802_a_at) / RFU TPSAB1 /// TPSB2 (11721975_s_at) / Fold change /veh TPSAB1 /// TPSB2 (11721975_s_at) / RFU GSTM3 (11746129_a_at) / Fold change /veh GSTM3 (11746129_a_at) / RFU IL23R (11737362_x_at) / Fold change /veh IL23R (11737362_x_at) / RFU TMEM51 (11727254_a_at) / Fold change /veh TMEM51 (11727254_a_at) / RFU PIWIL2 (11732686_x_at) / Fold change /veh PIWIL2 (11732686_x_at) / RFU ORM1 (11744905_x_at) / Fold change /veh ORM1 (11744905_x_at) / RFU CCDC152 (11743942_at) / Fold change /veh CCDC152 (11743942_at) / RFU ECM1 (11717891_a_at) / Fold change /veh ECM1 (11717891_a_at) / RFU IL23R (11748794_a_at) / Fold change /veh IL23R (11748794_a_at) / RFU TNFAIP8L3 (11732012_x_at) / Fold change /veh TNFAIP8L3 (11732012_x_at) / RFU MBOAT4 (11741988_at) / Fold change /veh MBOAT4 (11741988_at) / RFU 11764193_at / Fold change /veh 11764193_at / RFU TMEM53 (11763286_at) / Fold change /veh TMEM53 (11763286_at) / RFU MAGEB2 (11727129_at) / Fold change /veh MAGEB2 (11727129_at) / RFU TMEM200A (11744735_a_at) / Fold change /veh TMEM200A (11744735_a_at) / RFU CCDC152 (11751479_a_at) / Fold change /veh CCDC152 (11751479_a_at) / RFU FAM211A (11726209_a_at) / Fold change /veh FAM211A (11726209_a_at) / RFU RGS16 (11746705_a_at) / Fold change /veh RGS16 (11746705_a_at) / RFU VCAN (11755009_s_at) / Fold change /veh VCAN (11755009_s_at) / RFU RHOB (11743442_s_at) / Fold change /veh RHOB (11743442_s_at) / RFU RGS16 (11720943_a_at) / Fold change /veh RGS16 (11720943_a_at) / RFU RGS16 (11720944_at) / Fold change /veh RGS16 (11720944_at) / RFU, VPS4B / Fold change vs veh, VPS4B / RFU, CREB1 / Fold change vs veh, CREB1 / RFU, DNAJC13 / Fold change vs veh, DNAJC13 / RFU, GNAQ / Fold change vs veh, GNAQ / RFU, CDK5R1 / Fold change vs veh, CDK5R1 / RFU, ZRANB3 / Fold change vs veh, ZRANB3 / RFU, CUL4A / Fold change vs veh, CUL4A / RFU, CCNY / Fold change vs veh, CCNY / RFU, UFL1 / Fold change vs veh, UFL1 / RFU, COG3 / Fold change vs veh, COG3 / RFU, DIAPH2 / Fold change vs veh, DIAPH2 / RFU, SKA2 / Fold change vs veh, SKA2 / RFU, AFF3 / Fold change vs veh, AFF3 / RFU, LMF1 / Fold change vs veh, LMF1 / RFU, IPO11 / Fold change vs veh, IPO11 / RFU, DFFB / Fold change vs veh, DFFB / RFU, FOXP1 / Fold change vs veh, FOXP1 / RFU, CARD8 / Fold change vs veh, CARD8 / RFU, STRN3 / Fold change vs veh, STRN3 / RFU, ADK / Fold change vs veh, ADK / RFU, RASSF2 / Fold change vs veh, RASSF2 / RFU, WIPF1 / Fold change vs veh, WIPF1 / RFU, LARP1B / Fold change vs veh, LARP1B / RFU, RASA1 / Fold change vs veh, RASA1 / RFU, RB1 / Fold change vs veh, RB1 / RFU, PPFIA1 / Fold change vs veh, PPFIA1 / RFU, MAT2A / Fold change vs veh, MAT2A / RFU, CCT5 / Fold change vs veh, CCT5 / RFU, WDR92 / Fold change vs veh, WDR92 / RFU, CUX1 / Fold change vs veh, CUX1 / RFU, TTC7A / Fold change vs veh, TTC7A / RFU, TMEM135 / Fold change vs veh, TMEM135 / RFU, DEPTOR / Fold change vs veh, DEPTOR / RFU, CPM / Fold change vs veh, CPM / RFU, DNAJB6 / Fold change vs veh, DNAJB6 / RFU, CACNA2D3 / Fold change vs veh, CACNA2D3 / RFU, DTX4 / Fold change vs veh, DTX4 / RFU, TFCP2 / Fold change vs veh, TFCP2 / RFU, GMCL1 /// GMCL1P1 / Fold change vs veh, GMCL1 /// GMCL1P1 / RFU, AEBP2 / Fold change vs veh, AEBP2 / RFU, SNHG1 /// SNORD22 /// SNORD25 /// SNORD26 /// SNORD27 /// SNORD28 /// SNORD29 /// SNORD31 / Fold change vs veh, SNHG1 /// SNORD22 /// SNORD25 /// SNORD26 /// SNORD27 /// SNORD28 /// SNORD29 /// SNORD31 / Fold change (Aza/veh), C12orf56 (ProbeSet 11735607_a_at) / Fold change (ACY-1035/veh), C12orf56 (ProbeSet 11735607_a_at) / Fold change (Aza/veh), FGFR1OP (ProbeSet 11751329_s_at) / Fold change (ACY-1035/veh), FGFR1OP (ProbeSet 11751329_s_at) / Fold change (Aza/veh), VPS36 (ProbeSet 11739960_a_at) / Fold change (ACY-1035/veh), VPS36 (ProbeSet 11739960_a_at) / RFU SYPL1 (11715823_x_at) / Fold change /veh SYPL1 (11715823_x_at) / RFU IGFBP7 (11715501_s_at) / Fold change /veh IGFBP7 (11715501_s_at) / RFU REEP3 (11722064_at) / Fold change /veh REEP3 (11722064_at) / RFU IGLL1 (11728026_x_at) / Fold change /veh IGLL1 (11728026_x_at): dose or concentration left out as unconfirmed", "settings": "ProbeSet 11731461_x_at; LIST D", "data": [{"smiles": "Nc1ncn([C@@H]2O[C@H](CO)[C@@H](O)[C@H]2O)c(=O)n1", "note": "[azacitidine]", "values": [{"measurement": "Fold change vs veh, CPM", "result": 0.79}]}]}
